Literature values, collected in patent US7351424B2, “Enhanced purity trans-lutein-ester compositions and methods of making same” (Bio Lut S.A. de C.V., priority 2004, dated 2008).

Details: human, in vivo

lutein esters
bioavailability: even better than free lutein
